Reference: patent publication US20240158446A1, “CYCLIC COMPOUND HAVING SELECTIVE INHIBITORY ACTION ON KRAS OVER HRAS AND NRAS” (CHUGAI SEIYAKU KABUSHIKI KAISHA, priority 2021, published 2024)

Assays:
[1] = molecular target: GDP-bound KRAS wild-type protein (Homo sapiens, UniProt P01116); assay: Binding to KRAS by surface plasmon resonance (SPR), Single Cycle Kinetics; settings: SPR, Single Cycle Kinetics, GDP-bound KRAS wild-type protein; read-out: KRAS KD
[2] = molecular target: GDP-bound NRAS wild-type protein (Homo sapiens, UniProt P01111); assay: Binding to NRAS by surface plasmon resonance (SPR), Single Cycle Kinetics; settings: SPR, GDP-bound NRAS wild-type protein vs GDP-bound KRAS wild-type protein
[3] = molecular target: GDP-bound HRAS wild-type protein (Homo sapiens, UniProt P01112); assay: Binding to HRAS by surface plasmon resonance (SPR), Single Cycle Kinetics; settings: SPR, GDP-bound HRAS wild-type protein vs GDP-bound KRAS wild-type protein
Sequence of GDP-bound HRAS wild-type protein (P01112 whole entry): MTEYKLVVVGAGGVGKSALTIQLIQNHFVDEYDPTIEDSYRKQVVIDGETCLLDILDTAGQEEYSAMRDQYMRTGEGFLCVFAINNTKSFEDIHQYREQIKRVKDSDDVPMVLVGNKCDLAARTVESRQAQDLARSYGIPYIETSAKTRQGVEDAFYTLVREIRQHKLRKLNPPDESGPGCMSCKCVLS

Sequence of GDP-bound NRAS wild-type protein (P01111 whole entry): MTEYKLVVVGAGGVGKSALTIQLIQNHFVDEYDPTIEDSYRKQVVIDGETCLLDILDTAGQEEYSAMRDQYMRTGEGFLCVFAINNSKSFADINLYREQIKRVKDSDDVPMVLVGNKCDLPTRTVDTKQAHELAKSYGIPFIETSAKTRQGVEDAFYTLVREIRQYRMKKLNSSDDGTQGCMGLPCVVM
Sequence of GDP-bound KRAS wild-type protein (P01116 whole entry): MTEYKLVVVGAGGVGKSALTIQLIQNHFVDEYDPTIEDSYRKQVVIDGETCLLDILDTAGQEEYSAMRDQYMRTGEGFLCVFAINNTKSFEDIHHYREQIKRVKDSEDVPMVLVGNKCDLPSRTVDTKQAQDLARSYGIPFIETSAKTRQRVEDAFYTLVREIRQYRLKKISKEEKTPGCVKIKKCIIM

SMILES: CCO[C@@H]1C[C@H]2C(=O)NC3(CCC3)C(=O)N(C)[C@@H](C3CCCC3)C(=O)N(C)[C@H](C(=O)N(C)C)CC(=O)N(C)[C@@H](COC)C(=O)N[C@@H]([C@@H](C)CC)C(=O)N(C)CC(=O)N(C)[C@H]3C/C=C\CCN(C3=O)[C@@H](Cc3ccc(C(F)(F)F)cc3)C(=O)N(C)CC(=O)N[C@@H](CCc3cc(F)c(C(F)(F)F)c(F)c3)C(=O)N2C1 [PP1113, (2S,8S,12R,14S,20S,23S,27S,30S,36S,38Z)-20-cyclopentyl-8-[2-[3,5-difluoro-4-(trifluoromethyl)phenyl]ethyl]-12-ethoxy-27-(methoxymethyl)-N,N,4,19,22,26,32,35-octamethyl-30-[(1S)-1-methylpropyl]-3,6,9,15,18,21,25,28,31,34,42-undecaoxo-2-[[4-(trifluoromethyl)phenyl]methyl]spiro[1,4,7,10,16,19,22,26,29,32,35-undecazatricyclo[34.5.1.0^10,14]dotetracont-38-ene-17,1′-cyclobutane]-23-carboxamide]
- Kd [1]: 0.031 nM
- NRAS/KRAS (ratio of KD value for NRAS to KD value for KRAS) [2]: A (a compound having 10 or more and less than 20 is denoted as A)
- HRAS/KRAS (ratio of KD value for HRAS to KD value for KRAS) [3]: A (a compound having 10 or more and less than 20 is denoted as A)

SMILES: C=CC[C@H]1C(=O)N[C@@H]([C@@H](C)CC)C(=O)N(C)CC(=O)N(C)[C@H]2C/C=C\CCN(C2=O)[C@@H](Cc2ccc(C(F)(F)F)cc2)C(=O)N(C)CC(=O)N[C@@H](CCc2cc(F)c(C(F)(F)F)c(F)c2)C(=O)N2C[C@H](OCC)C[C@H]2C(=O)NC2(CCC2)C(=O)N(C)[C@@H](C2CCCC2)C(=O)N(C)[C@H](C(=O)N(C)C)CC(=O)N1C [PP1114, (2S,8S,12R,14S,20S,23S,27S,30S,36S,38Z)-27-allyl-20-cyclopentyl-8-[2-[3,5-difluoro-4-(trifluoromethyl)phenyl]ethyl]-12-ethoxy-N,N,4,19,22,26,32,35-octamethyl-30-[(1S)-1-methylpropyl]-3,6,9,15,18,21,25,28,31,34,42-undecaoxo-2-[[4-(trifluoromethyl)phenyl]methyl]spiro[1,4,7,10,16,19,22,26,29,32,35-undecazatricyclo[34.5.1.0^10,14]dotetracont-38-ene-17,1′-cyclobutane]-23-carboxamide]
- Kd [1]: 0.054 nM
- NRAS/KRAS (ratio of KD value for NRAS to KD value for KRAS) [2]: A (a compound having 10 or more and less than 20 is denoted as A)
- HRAS/KRAS (ratio of KD value for HRAS to KD value for KRAS) [3]: A (a compound having 10 or more and less than 20 is denoted as A)

SMILES: C#CC[C@H]1C(=O)N[C@@H]([C@@H](C)CC)C(=O)N(C)CC(=O)N(C)[C@H]2C/C=C\CCN(C2=O)[C@@H](Cc2ccc(C(F)(F)F)cc2)C(=O)N(C)CC(=O)N[C@@H](CCc2cc(F)c(C(F)(F)F)c(F)c2)C(=O)N2C[C@H](OCC)C[C@H]2C(=O)NC2(CCC2)C(=O)N(C)[C@@H](C2CCCC2)C(=O)N(C)[C@H](C(=O)N(C)C)CC(=O)N1C [PP1115, (2S,8S,12R,14S,20S,23S,27S,30S,36S,38Z)-20-cyclopentyl-8-[2-[3,5-difluoro-4-(trifluoromethyl)phenyl]ethyl]-12-ethoxy-N,N,4,19,22,26,32,35-octamethyl-30-[(1S)-1-methylpropyl]-3,6,9,15,18,21,25,28,31,34,42-undecaoxo-27-prop-2-ynyl-2-[[4-(trifluoromethyl)phenyl]methyl]spiro[1,4,7,10,16,19,22,26,29,32,35-undecazatricyclo[34.5.1.0^10,14]dotetracont-38-ene-17,1′-cyclobutane]-23-carboxamide]
- Kd [1]: 0.054 nM
- NRAS/KRAS (ratio of KD value for NRAS to KD value for KRAS) [2]: A (a compound having 10 or more and less than 20 is denoted as A)
- HRAS/KRAS (ratio of KD value for HRAS to KD value for KRAS) [3]: A (a compound having 10 or more and less than 20 is denoted as A)

SMILES: CCO[C@@H]1C[C@H]2C(=O)NC3(CCC3)C(=O)N(C)[C@@H](C3CCCC3)C(=O)N(C)[C@H](C(=O)N(C)C)CC(=O)N(C)[C@@H](Cc3ccccc3)C(=O)N[C@@H]([C@@H](C)CC)C(=O)N(C)CC(=O)N(C)[C@H]3C/C=C\CCN(C3=O)[C@@H](Cc3ccc(C(F)(F)F)cc3)C(=O)N(C)CC(=O)N[C@@H](CCc3cc(F)c(C(F)(F)F)c(F)c3)C(=O)N2C1 [PP1116, (2S,8S,12R,14S,20S,23S,27S,30S,36S,38Z)-27-benzyl-20-cyclopentyl-8-[2-[3,5-difluoro-4-(trifluoromethyl)phenyl]ethyl]-12-ethoxy-N,N,4,19,22,26,32,35-octamethyl-30-[(1S)-1-methylpropyl]-3,6,9,15,18,21,25,28,31,34,42-undecaoxo-2-[[4-(trifluoromethyl)phenyl]methyl]spiro[1,4,7,10,16,19,22,26,29,32,35-undecazatricyclo[34.5.1.0^10,14]dotetracont-38-ene-17,1′-cyclobutane]-23-carboxamide]
- Kd [1]: 0.069 nM
- NRAS/KRAS (ratio of KD value for NRAS to KD value for KRAS) [2]: A (a compound having 10 or more and less than 20 is denoted as A)
- HRAS/KRAS (ratio of KD value for HRAS to KD value for KRAS) [3]: A (a compound having 10 or more and less than 20 is denoted as A)

SMILES: CCO[C@@H]1C[C@H]2C(=O)NC3(CCC3)C(=O)N(C)[C@@H](C3CCCC3)C(=O)N(C)[C@H](C(=O)N(C)C)CC(=O)N(C)[C@@H](CC(C)(C)C)C(=O)N[C@@H]([C@@H](C)CC)C(=O)N(C)CC(=O)N(C)[C@H]3C/C=C\CCN(C3=O)[C@@H](Cc3ccc(C(F)(F)F)cc3)C(=O)N(C)CC(=O)N[C@@H](CCc3cc(F)c(C(F)(F)F)c(F)c3)C(=O)N2C1 [PP1117, (2S,8S,12R,14S,20S,23S,27S,30S,36S,38Z)-20-cyclopentyl-8-[2-[3,5-difluoro-4-(trifluoromethyl)phenyl]ethyl]-27-(2,2-dimethylpropyl)-12-ethoxy-N,N,4,19,22,26,32,35-octamethyl-30-[(1S)-1-methylpropyl]-3,6,9,15,18,21,25,28,31,34,42-undecaoxo-2-[[4-(trifluoromethyl)phenyl]methyl]spiro[1,4,7,10,16,19,22,26,29,32,35-undecazatricyclo[34.5.1.0^10,14]dotetracont-38-ene-17,1′-cyclobutane]-23-carboxamide]
- Kd [1]: 0.07 nM
- NRAS/KRAS (ratio of KD value for NRAS to KD value for KRAS) [2]: A (a compound having 10 or more and less than 20 is denoted as A)
- HRAS/KRAS (ratio of KD value for HRAS to KD value for KRAS) [3]: A (a compound having 10 or more and less than 20 is denoted as A)

SMILES: CCO[C@@H]1C[C@H]2C(=O)NC3(CCC3)C(=O)N(C)[C@@H](C3CCCC3)C(=O)N(C)[C@H](C(=O)N(C)C)CC(=O)N(C)[C@@H](CSC)C(=O)N[C@@H]([C@@H](C)CC)C(=O)N(C)CC(=O)N(C)[C@H]3C/C=C\CCN(C3=O)[C@@H](Cc3ccc(C(F)(F)F)cc3)C(=O)N(C)CC(=O)N[C@@H](CCc3cc(F)c(C(F)(F)F)c(F)c3)C(=O)N2C1 [PP1119, (2S,8S,12R,14S,20S,23S,27R,30S,36S,38Z)-20-cyclopentyl-8-[2-[3,5-difluoro-4-(trifluoromethyl)phenyl]ethyl]-12-ethoxy-N,N,4,19,22,26,32,35-octamethyl-30-[(1S)-1-methylpropyl]-27-(methylsulfanylmethyl)-3,6,9,15,18,21,25,28,31,34,42-undecaoxo-2-[[4-(trifluoromethyl)phenyl]methyl]spiro[1,4,7,10,16,19,22,26,29,32,35-undecazatricyclo[34.5.1.0^10,14]dotetracont-38-ene-17,1′-cyclobutane]-23-carboxamide]
- Kd [1]: 0.037 nM
- NRAS/KRAS (ratio of KD value for NRAS to KD value for KRAS) [2]: A (a compound having 10 or more and less than 20 is denoted as A)
- HRAS/KRAS (ratio of KD value for HRAS to KD value for KRAS) [3]: A (a compound having 10 or more and less than 20 is denoted as A)

SMILES: CCO[C@@H]1C[C@H]2C(=O)NC3(CCC3)C(=O)N(C)[C@@H](C3CCCC3)C(=O)N(C)[C@H](C(=O)N(C)C)CC(=O)N(C)[C@@H](CC(F)F)C(=O)N[C@@H]([C@@H](C)CC)C(=O)N(C)CC(=O)N(C)[C@H]3C/C=C\CCN(C3=O)[C@@H](Cc3ccc(C(F)(F)F)cc3)C(=O)N(C)CC(=O)N[C@@H](CCc3cc(F)c(C(F)(F)F)c(F)c3)C(=O)N2C1 [PP1120, (2S,8S,12R,14S,20S,23S,27S,30S,36S,38Z)-20-cyclopentyl-27-(2,2-difluoroethyl)-8-[2-[3,5-difluoro-4-(trifluoromethyl)phenyl]ethyl]-12-ethoxy-N,N,4,19,22,26,32,35-octamethyl-30-[(1S)-1-methylpropyl]-3,6,9,15,18,21,25,28,31,34,42-undecaoxo-2-[[4-(trifluoromethyl)phenyl]methyl]spiro[1,4,7,10,16,19,22,26,29,32,35-undecazatricyclo[34.5.1.0^10,14]dotetracont-38-ene-17,1′-cyclobutane]-23-carboxamide]
- Kd [1]: 0.042 nM
- NRAS/KRAS (ratio of KD value for NRAS to KD value for KRAS) [2]: A (a compound having 10 or more and less than 20 is denoted as A)
- HRAS/KRAS (ratio of KD value for HRAS to KD value for KRAS) [3]: A (a compound having 10 or more and less than 20 is denoted as A)
